Experimental data reported in patent US20090275667A1, “USE OF ALLICIN AS PRESERVATIVE, AS DISINFECTANT, AS ANTIMICROBIAL OR AS BIOCIDAL AGENT” (Stone Island Holdings Ltd, priority 2003, published 2009).

Legend:
E. coli = experiment: Zones of Inhibition against common chicken bacteria; type: cell-based; conditions: Escherichia coli
P. alvei = experiment: Investigation into bacteriostatic or bactericidal effects (Study 2); type: cell-based, Paenibacillus alvei; conditions: conclusion from subculture into fresh media
Experimental: (§1) Where there was no growth in a replicate, at the end of one week the culture was plated out for single colonies on the appropriate agar. This was to determine whether the test item had bactericidal activity, where all the bacterial cells are killed, or bacteriostatic action, where the cells are unable to replicate in the presence of the substance, but will grow when it is removed. A further test, where 0.5 ml of the broth was transferred into 4.5 ml fresh broth (giving a 1:10 dilution) was also undertaken. There would still be some Allicin in the broth, but it should be present at a low enough concentration for growth not to be affected. Where growth occurred in the absence of Allicin, the broth was examined microscopically and plated out for single colonies to confirm the identity of the bacterium.

[1] = system: Enterococcus hirae (University of Brighton isolate); experiment: Modified Kelsey-Sykes test; type: cell-based; parameters: key: CG = Confluent growth
From the text: Allicin can be used to displace or supplement existing harmful forms of disinfectant/biocide such as chlorine, sodium hypochlorite, ozone and per-acetic acid all of which can have an adverse effect on the environment. UV radiation is also used for disinfection but power and general running costs are high. Laboratory studies have been conducted on our behalf using allicin on aqueous suspensions of bacterial species commonly used as indicators of the effectiveness of water and wastewater disinfection. To this effect, identified isolates from the faecal coliform and streptococcus groups, namely, Escherichia coli (NCTC 8156) and Enterococcus hirae (University of Brighton isolate) were used in all experiments. […]
Stock suspensions of Escherichia coli (NCTC 8156) and Enterococcus hirae (University of Brighton isolate) were cultivated in Nutrient Broth No. 2 from freeze dried isolates. Prior to each experiment, serial dilutions of the suspensions were enumerated by the spread plate method on Nutrient Agar and subsequent incubation at 37 deg C.
Initial experimental procedures were based on the methods set out in an established UK protocol (BS 6905: 1987). The Kelsy-Sykes methodology was developed as a guide to the concentrations of disinfectants which may be recommended for use under “dirty” (wastewater/sewage) conditions. It is therefore a suitable means of establishing the effectiveness of a disinfectant against a wastewater containing particulate and dissolved contaminants in addition to micro-organisms.
Therefore, with regard to wastewater/sewage considerations, the protocol was adapted. Under the revised methodology, a sample was taken from the bacterial suspension/biocide mix after the prescribed contact time and plated out onto solid media so that a colony count could be made (see Tables 1 and 2).

M. plutonius = experiment: Investigation into bacteriostatic or bactericidal effects (Study 2); type: cell-based, Melissococcus plutonius; conditions: conclusion from subculture after exposure
Experimental: as §1

[2] = system: protozoal parasite associated with Leishmaniasis; experiment: Confirmatory in vitro test against the Leishmaniasis parasite; type: cell-based, Leishmania; conditions: allicin 5.0 gm per litre
From the text: Confirmatory in vitro tests at the University of East London using allicin at a concentration of 5.0 gm per litre has killed the protozoal parasite associated with Leishmaniasis. Taken with extrapolation of the results from the laboratory studies described in PCT/GB2002/004309, we believe that allicin at a concentration of 5000 ppm has efficacy as an antiprotozoal agent.

[3] = allicin conc. 0.9 % (w/v), 10 mins
[4] = allicin conc. 0.9 % (w/v), 20 mins
[5] = allicin conc. 0.9 % (w/v), 30 mins
[6] = allicin conc. 1.08 % (w/v), 10 mins
[7] = allicin conc. 1.08 % (w/v), 20 mins
[8] = allicin conc. 1.26 % (w/v), 10 mins
[9] = allicin conc. 1.26 % (w/v), 20 mins
[10] = allicin conc. 1.62 % (w/v), 10 mins
[11] = allicin conc. 1.62 % (w/v), 20 mins

## C=CCS[S+]([O-])CC=C (stereo not shown) [allicin, Allicin]
E. coli; 166 ppm (1:6 dilution)
  zone of inhibition at 166 ppm: 0 mm
E. coli; 1000 ppm
  zone of inhibition at 1000 ppm: 17 mm
P. alvei
  bacteriostatic or bactericidal effect: did not kill all bacteria
[1]; [3]
  Numbers of colony forming units killed: CG
  Percentage reduction in colony forming units: CG
[1]; [4]
  Numbers of colony forming units killed: CG
  Percentage reduction in colony forming units: CG
[1]; [5]
  Numbers of colony forming units killed: CG
  Percentage reduction in colony forming units: CG
[1]; [6]
  Numbers of colony forming units killed: CG
  Percentage reduction in colony forming units: CG
[1]; [7]
  Numbers of colony forming units killed: CG
  Percentage reduction in colony forming units: CG
[1]; allicin conc. 1.08 % (w/v), 30 mins
  Percentage reduction in colony forming units: 77%
[1]; [8]
  Numbers of colony forming units killed: CG
  Percentage reduction in colony forming units: CG
[1]; [9]
  Numbers of colony forming units killed: CG
  Percentage reduction in colony forming units: CG
[1]; allicin conc. 1.26 % (w/v), 30 mins
  Percentage reduction in colony forming units: 91%
[1]; allicin conc. 1.4 % (w/v), 10 mins
  Percentage reduction in colony forming units: CG
[1]; allicin conc. 1.4 % (w/v), 20 mins
  Percentage reduction in colony forming units: CG
[1]; allicin conc. 1.4 % (w/v), 30 mins
  Percentage reduction in colony forming units: 87%
[1]; allicin conc. 1.44 % (w/v), 10 mins
  Numbers of colony forming units killed: CG
[1]; allicin conc. 1.44 % (w/v), 20 mins
  Numbers of colony forming units killed: CG
[1]; [10]
  Numbers of colony forming units killed: CG
  Percentage reduction in colony forming units: CG
[1]; [11]
  Numbers of colony forming units killed: CG
  Percentage reduction in colony forming units: CG
[1]; allicin conc. 1.62 % (w/v), 30 mins
  Percentage reduction in colony forming units: 89%
M. plutonius
  bacteriostatic or bactericidal effect: bacteriostatic rather than bactericidal effects
[2]
  killing of the protozoal parasite: killed
